Measurements taken from patent publication US5126291A, “Sulfur inhibitors of phospholipase A-Z” (American Cyanamid Company, priority 1990, dated 1992).
Where a name gives a salt, the structure may show the parent alone. Read-outs that look alike come from different tables or passages of the source.

Assays:
[1] = system: spontaneously hypertensive rats; assay: Hypotensive activity: mean arterial blood pressure in conscious cannulated spontaneously hypertensive rats, intravenous; type: in vivo; details: for Peak Mean Arterial Blood Pressure: spontaneously hypertensive rats, intravenous
Text: Under ether anesthesia, Weeks type cannulas (Peterson Technics) were surgically implanted in the abdominal aorta and vena cave of spontaneously hypertensive rats (Taconic Farms, Germantown, NY) and passed subcutaneously to the back of the neck where they were exteriorized. The cannulas were filled with saline, plugged and the rats returned to single cages where they were allowed food and water ad libitum.
At least three days following implantation of the cannulas, the rats were weighed and placed in Broome style restraining cages. The plug was removed from the aortic catheter which was connected to an arterial pressure transducer (Statham P23ID) using PE 100 polyethylene tubing and a stepdown connector fabricated from stainless steel hypodermic tubing. Mean arterial blood pressure was obtained by electrical damping of the pulse pressure channel. Heart rate was obtained from a tachograph triggered by the pulse pressure channel. All parameters were monitored on a Grass physiological recorder (Model 7).
The plug was removed from the vena cava catheter and a PE 20 polyethylene tubing extension was added using a piece of stainless steel hypodermic tubing. The other end was terminated with a 27 G needle and one ml syringe.
All drugs were dissolved in saline or a mixture of ethanol and saline (25:75V:V) such that the volume injected intravenously was 0.1 ml/100 g body weight. All drugs were flushed in with 0.2 ml saline. Blood pressure was continually monitored both before and after introduction of the test compound.

porcine pancreatic PLA2 = target: T1, porcine pancreatic PLA2 (Sus scrofa, UniProt P00592); assay: Inhibition of porcine pancreatic phospholipase A2 (PLA2), radiochemical assay; type: biochemical; details: for inhibition at 10 µg/mL / Percent Inhibition at 10 ug/ml: 10 ug/ml inhibitor; for inhibition at 10 µg/mL: read-out: Percent Inhibition at 10 ug/ml
T1 construct: purchased Sigma
Protocol: 4-((3-(Dimethylamino)propyl)thio)-1-(hexadecyloxy)-2-butanol, acetate was prepared by the method of Example 64 as a 1 mg/ml solution in methanol. Inhibition of phospholipase A2 activity was measured by a radiochemical assay in which labeled synthetic phosphatidylcholine substrate is converted by porcine pancreatic PLA2 to free radiolabeled arachidonate and lyso phosphatidyl choline. In the assay, radiolabeled arachidonate is extracted from the reaction mixture and separated from unreacted substrate by column or thin layer chromatography. The radioactivity (cpm) in samples is quantified in liquids scintillation counting.
[…] The combined substrate was then redissolved in 0.1M Tris-HCl buffer, pH 9.0, containing 10 mM calcium chloride and 10 mM sodium taurocholate detergent. The mixture was sonicated for 10 to 30 seconds in a Kontes Sonifier to yield a homogeneous dispersion. The "mixed" micellar substrate was clear. An aliquot was reserved for a cpm count (total substrate). The total reaction volume was 500 ul; siliconized glassware or plasticware was used throughout. Porcine pancreatic phospholipase A2 enzyme (Sigma, sp. act. […] U/mg protein and preferably 900 U/mg protein) was diluted 1:750 or 1:1000 in 0.1M Tris-HCl buffer, pH 9.0 (without Ca^++ and detergent).
The test compound was diluted appropriately in phosphate buffered saline. 10 ul aliquots of the stock solution were either incubated with enzyme in buffer in the absence of Ca^++ detergent or were blown under N2 stream with the substrate prior to the addition of buffer. The substrate and buffer were kept on ice until the reaction was started by the addition of enzyme (preincubated with test compound or diluent, or fresh enzyme) to the substrate dispersion in buffer.
Samples (600 ul) were extracted with 3 ml of CHC13 /MeOH solution (2:1) for thin layer chromatography. The phases were separated by gentle centrifugation at 700 rpm for 5 minutes. The organic phase was recovered for either thin layer or column chromatography separation.
For thin layer chromatography, labeled arachidonate extracted with CHC13 /MeOH solution was separated on Silica Gel G TLC plates (Analtech). Twenty ul of a 2 mg/ml internal standard solution of arachidonic acid (Sigma) was combined with 2 to 3 ml of the organic phase. The entire mixture was dried under nitrogen and redissolved in 50 ul of CHC13 /MeOH solution (2:1). A 20 ul sample was counted in 10 ml of Beckman Redi-solv Scintillation fluid HP and spotted in Silica Gel G plates. The solvent system used to develop the plate was a CHC13 /MeOH/13.5N NH3 /H2 O solution (70:30:4:1). Thin layer chromatography plates were developed in a glass chamber for 1 to 11/2 hours, air dried, and the spots visualized in an iodine vapor chamber. Standards of phosphatidyl/choline, lyso phosphatidyl choline, and arachidonic acid (Sigma) were made up as 2 mg/ml stocks in CHC13 /MeOH solution (2:1) and were spotted on the thin layer chromatography plates. Spots corresponding to arachidonate and phospholipid were scraped and counted in 10 ml Beckman Redi-Solv HP scintillation fluid.
For column chromatography, samples were extracted with hexane/diether solution and the upper organic phase recovered. An aliquot was applied to a Silicar CC4 (Maleinckrodt) column. Columns were prepared using 1 ml of 1:1 slurry of Silicar CC4 (Maleinckrodt) in hexane/ether solution in a Pasteur pipet (approximately 2 cm height). Columns were rinsed with 500 ul of hexane/ether solution before adding the sample (300-600 ul) to the columns. Columns were eluted with a total of 6 ml of hexane/ether solution. The 6 ml sample was counted in 10 ml of Beckman Redi-Solv HP scintillation fluid. Thin layer chromatography analysis confirmed that the radioactivity eluted was arachidonate.
3-((3-(Acetyloxy)-4-(hexadecyloxy)-butyl)-thio)-N,N,N-trimethyl-1-propanaminium, iodide was prepared by the method of Example 65 as a 1 mg/ml solution in methanol. […]

[2] = 1000 uM substrate concentration

T1 sequence (P00592 23-146): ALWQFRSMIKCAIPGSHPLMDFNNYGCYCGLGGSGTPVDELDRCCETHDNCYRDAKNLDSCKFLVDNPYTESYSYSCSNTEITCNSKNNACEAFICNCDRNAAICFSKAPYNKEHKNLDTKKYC

Question: With CCCCCCCCCCCCCCCCOCC(COP(=O)([O-])OC(C)C[N+](C)(C)C)OC(C)=O (stereo not shown) [7-(Acetyloxy)-4-hydroxy-N,N,N,2-tetramethyl-3,5,9-trioxa-4-phosphapentacosan-1-aminium, 4-oxide, hydroxide, inner salt] as the compound, how does the “Peak Mean Arterial Blood Pressure” value ([1]; dose 0.3 ug/kg) read?
Answer: -17.4 mm,Hg

Question: And the “Peak Mean Arterial Blood Pressure” value ([1]; dose 1.0 ug/kg)?
Answer: -40.2 mm,Hg

Question: What about the “Peak Mean Arterial Blood Pressure” value ([1]; dose 3.0 ug/kg) of the same compound?
Answer: -88.8 mm,Hg

Question: What about the “Peak Mean Arterial Blood Pressure” value ([1]; dose 10.0 ug/kg) of the same compound?
Answer: -96.5 mm,Hg

Question: What about the “Peak Mean Arterial Blood Pressure” value ([1]; dose 30.0 ug/kg) of the same compound?
Answer: -103.4 mm,Hg

Question: CCCCCCCCCCCCCCCCOCC(COP(=O)([O-])Oc1cccc(C[N+](C)(C)C)c1)OC(C)=O (stereo not shown) [3-(((2-(Acetyloxy)-3-(hexadecyloxy)propoxy)hydroxyphosphinyl)oxy)-N,N,N-trimethylbenzenemethanaminium, hydroxide inner salt] was tested. Which “Peak Mean Arterial Blood Pressure” value ([1]; dose 0.1 ug/kg) did it give?
Answer: -10.4 mm,Hg

Question: And the “Peak Mean Arterial Blood Pressure” value ([1]; dose 0.3 ug/kg)?
Answer: -16.3 mm,Hg

Question: And the “Peak Mean Arterial Blood Pressure” value ([1]; dose 1.0 ug/kg)?
Answer: -37.2 mm,Hg

Question: What about the “Peak Mean Arterial Blood Pressure” value ([1]; dose 3.0 ug/kg) of the same compound?
Answer: -83.9 mm,Hg

Question: What about the “Peak Mean Arterial Blood Pressure” value ([1]; dose 10.0 ug/kg) of the same compound?
Answer: -91.0 mm,Hg

Question: Which IC50 (porcine pancreatic PLA2; 2 nM substrate concentration) does the source give for CCCCCCCCCCCCCCCCOCC(CCSCCC[N+](C)(C)C)OC(C)=O (stereo not shown) [Example 68, 3-((3-(Acetyloxy)-4-(hexadecyloxy)-butyl)-thio)-N,N,N-trimethyl-1-propanaminium, iodide] here?
Answer: 2.52 µM

Question: What about the IC50 (porcine pancreatic PLA2; 10 uM substrate concentration) of the same compound?
Answer: 10.1 µM

Question: What about the inhibition at 10 µg/mL (porcine pancreatic PLA2; 2 nM substrate concentration) of the same compound?
Answer: 96.6 ± 4.6%

Question: And the inhibition at 10 µg/mL (porcine pancreatic PLA2; 10 uM substrate concentration)?
Answer: 63.2 ± 13.5%

Question: What about the inhibition at 10 µg/mL (porcine pancreatic PLA2; 100 uM substrate concentration) of the same compound?
Answer: 45 ± 13.6%

Question: What about the inhibition at 10 µg/mL (porcine pancreatic PLA2; 500 uM substrate concentration) of the same compound?
Answer: 15.4 ± 5.7%

Question: And the inhibition at 10 µg/mL (porcine pancreatic PLA2; [2])?
Answer: 8.2 ± 4.6%

Question: What about the IC50 (porcine pancreatic PLA2; 100 uM substrate concentration) of the same compound?
Answer: 20 µM

Question: And the IC50 (porcine pancreatic PLA2; 500 uM substrate concentration)?
Answer: 96.8 µM

Question: What about the IC50 (porcine pancreatic PLA2; [2]) of the same compound?
Answer: 137 µM

Question: Which “Peak Mean Arterial Blood Pressure” value ([1]; dose 0.03 ug/kg) does the source give for CCCCCCCCCCCCCCCCOCC(COP(=O)([O-])OCC(C)[N+](C)(C)C)OC(C)=O (stereo not shown) [8-(Acetyloxy)-5-hydroxy-N,N-N-trimethyl-4,6,10-trioxa-5-phosphahexacosan-2-aminium, 5-oxide, hydroxide, inner salt] here?
Answer: -16.4 mm,Hg

Question: What about the “Peak Mean Arterial Blood Pressure” value ([1]; dose 0.1 ug/kg) of the same compound?
Answer: -36.3 mm,Hg

Question: What about the “Peak Mean Arterial Blood Pressure” value ([1]; dose 0.3 ug/kg) of the same compound?
Answer: -58.6 mm,Hg

Question: And the “Peak Mean Arterial Blood Pressure” value ([1]; dose 1.0 ug/kg)?
Answer: -103.1 mm,Hg

Question: What about the “Peak Mean Arterial Blood Pressure” value ([1]; dose 3.0 ug/kg) of the same compound?
Answer: -118.3 mm,Hg

Question: What does the source list for CCCCCCCCCCCCCCCCOCC(CCSCCCN(C)C)OC(C)=O (stereo not shown) [Example 67, 4-((3-(Dimethylamino)propyl)thio)-1-(hexadecyloxy)-2-butanol, acetate]?
Answer: IC50 (porcine pancreatic PLA2; 2 nM substrate concentration): 18.6 µM; IC50 (porcine pancreatic PLA2; 10 uM substrate concentration): 45.7 µM; inhibition at 10 µg/mL (porcine pancreatic PLA2; 2 nM substrate concentration): 54%; inhibition at 10 µg/mL (porcine pancreatic PLA2; 10 uM substrate concentration): 33 ± 12.7%; IC50 (porcine pancreatic PLA2; 100 uM substrate concentration): 96.7 µM; IC50 (porcine pancreatic PLA2; 500 uM substrate concentration): 226 µM

Question: How did the “reduced the blood pressure in the spontaneously hypertensive rat” value ([1]; dose of 10 mg/kg (iv), value is a reduction) turn out when CCCCCCCCCCCCCCCCOCC(CCS(=O)(=O)CCC[N+](C)(C)C)OC(C)=O.[Cl-] (stereo not shown) [3-((3-(Acetyloxy)-4-(hexadecyloxy)butyl)sulfonyl)-N,N,N-trimethyl-1-propanaminium chloride] was run?
Answer: 20 mm Hg

Question: With “3-((3-(Acetyloxy)-4-(hexadecyloxy)-butyl)-thio)-N,N,N-trimethyl-1-propanaminium, chloride [Example 69]” as the compound, how does the Ic50 (porcine pancreatic PLA2; 2 nM substrate concentration) read?
Answer: 2.8 µg/mL

Question: What about the Ic50 (porcine pancreatic PLA2; 10 uM substrate concentration) of the same compound?
Answer: 11.52 ± 10.58 µg/mL

Question: What about the “Percent Inhibition at 10 ug/ml” value (porcine pancreatic PLA2; 2 nM substrate concentration) of the same compound?
Answer: 77%

Question: And the “Percent Inhibition at 10 ug/ml” value (porcine pancreatic PLA2; 10 uM substrate concentration)?
Answer: 55.3 ± 16.5%

Question: What about the “Percent Inhibition at 10 ug/ml” value (porcine pancreatic PLA2; 100 uM substrate concentration) of the same compound?
Answer: 23%

Question: And the Ic50 (porcine pancreatic PLA2; 100 uM substrate concentration)?
Answer: 45.56 ± 23.60 µg/mL

Question: How did the “Peak Mean Arterial Blood Pressure” value ([1]; dose 0.03 ug/kg) turn out when CCCCCCCCCCCCCCc1cccc(OCC(COP(=O)([O-])OCC(C)[N+](C)(C)C)OC(C)=O)c1 (stereo not shown) [7-Hydroxy-N,N,N-trimethyl-2-oxo-4-((3-tetradecylphenoxy)methyl)3,6,8-trioxa-7-phosphaundecan-10-aminium, 7-oxide, hydroxide, inner salt] was run?
Answer: -9.8 mm,Hg

Question: What about the “Peak Mean Arterial Blood Pressure” value ([1]; dose 0.1 ug/kg) of the same compound?
Answer: -17.6 mm,Hg

Question: What about the “Peak Mean Arterial Blood Pressure” value ([1]; dose 0.3 ug/kg) of the same compound?
Answer: -78.7 mm,Hg

Question: And the “Peak Mean Arterial Blood Pressure” value ([1]; dose 1.0 ug/kg)?
Answer: -95.9 mm,Hg

Question: Which “Peak Mean Arterial Blood Pressure” value ([1]; dose 10.0 ug/kg) does the source give for CCCCCCCCCCCCCCCCOCC(COP(=O)([O-])OCC(c1ccccc1)[N+](C)(C)C)OC(C)=O (stereo not shown) [7-(Acetyloxy)-4-hydroxy-N,N,N-trimethyl-1-phenyl-3,5,9-trioxa-4-phosphapentacosan-1-aminium, 4-oxide hydroxide inner salt] here?
Answer: -59.0 mm,Hg
